Laboratory results as given in BindingDB's records for doi:10.1016/j.bioorg.2005.08.001 (Texas A&M University, 2005).

Biological target: T1, Dihydroorotase (Escherichia coli (strain K12), UniProt P05020)
T1 sequence (P05020 whole entry): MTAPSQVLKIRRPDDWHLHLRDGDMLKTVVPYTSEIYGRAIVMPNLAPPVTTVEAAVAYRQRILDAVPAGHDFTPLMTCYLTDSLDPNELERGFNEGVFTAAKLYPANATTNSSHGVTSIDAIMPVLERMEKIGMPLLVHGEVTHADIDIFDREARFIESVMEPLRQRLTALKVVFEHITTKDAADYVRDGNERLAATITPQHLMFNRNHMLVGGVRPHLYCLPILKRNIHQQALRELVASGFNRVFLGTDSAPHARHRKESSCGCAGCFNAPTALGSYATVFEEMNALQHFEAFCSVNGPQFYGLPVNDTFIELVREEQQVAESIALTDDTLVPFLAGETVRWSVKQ
Test: Inhibition Assay
Details: pH 7
Description: The DHO-catalyzed hydrolysis of dihydrooroate was monitored spectrophotoetrically at 230 and 280 nm using a SPECTRAmax (Molecular Device) plate reader.

Compound `O=C1CC(=O)N[C@H](C(=O)O)C1` [4,6-dioxo-piperidine-2-carboxylic acid, 3] has a Ki of 76 mM.
